Measurements reported in US12187722B2, “Small molecule inhibitors of TEAD transcription factors” (The General Hospital Corporation, priority 2019, dated 2025).

The molecules below were run against TEAD2 (Homo sapiens (Human), UniProt Q15562) (assay: In vitro palmitoylation (TEAD2 autopalmitoylation, streptavidin blot)). Conditions: compound at 10 μM; Table 2.
Format: biochemical
In short: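 Recombinant GST- or His6-TEAD2 (500 ng) preincubated 15 min with compound, then 30 min with 1 μM alkyne palmitoyl-CoA; click-labelled with biotin-azide (1 h, RT). Streptavidin-HRP blot band intensity quantified after SDS-PAGE; inhibition of autopalmitoylation relative to DMSO control.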

Sequence of TEAD2 (Q15562 whole entry): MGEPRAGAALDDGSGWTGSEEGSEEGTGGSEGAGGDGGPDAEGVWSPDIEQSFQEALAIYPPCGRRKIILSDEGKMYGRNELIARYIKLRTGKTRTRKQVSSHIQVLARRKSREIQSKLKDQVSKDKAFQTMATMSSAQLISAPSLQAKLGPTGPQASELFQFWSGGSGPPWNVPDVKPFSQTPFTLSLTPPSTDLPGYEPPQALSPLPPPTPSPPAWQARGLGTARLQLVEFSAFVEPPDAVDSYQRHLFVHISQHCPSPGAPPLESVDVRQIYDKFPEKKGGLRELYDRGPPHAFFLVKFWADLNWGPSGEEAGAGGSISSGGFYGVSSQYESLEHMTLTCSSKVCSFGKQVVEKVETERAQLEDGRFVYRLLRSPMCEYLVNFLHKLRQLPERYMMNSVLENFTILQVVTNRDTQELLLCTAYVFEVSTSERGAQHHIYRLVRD

Row | inhibition at 10 µM [%] | % of inhibition of TEAD2 palmitoylation at 10 μM [%] | Structure (SMILES)
1 | 0 |  | O=C(O)[C@@H]1CCCN1C(=O)Nc1ccc(Nc2ccc(C34CC5CC(CC(C5)C3)C4)cc2Cl)cc1 [Compound 50]
2 | 77 |  | NC(=O)c1ccccc1Nc1ccc(Nc2ccc(C34CC5CC(CC(C5)C3)C4)cc2Cl)cc1 [compound 272]
3 | 100 |  | O=C(Nc1ccccc1C(=O)O)c1ccc(Nc2ccc(C34CC5CC(CC(C5)C3)C4)cc2)cc1 [Compound 197]
4 | 95 |  | O=C(Nc1ccc(C23CC4CC(CC(C4)C2)C3)cc1)c1ccc(Cl)c(Nc2ncccc2C(=O)O)c1 [Compound 247]
5 | 0 |  | CCOC(=O)/C=C/c1ccccc1Nc1ccc(Nc2ccc(C34CC5CC(CC(C5)C3)C4)cc2)cc1 [Compound 14]
6 | 61 |  | CN(C(=O)c1ccc(Nc2ccc(C34CC5CC(CC(C5)C3)C4)cc2)cc1)c1ccccc1C(=O)O [Compound 221]
7 | 57 |  | CCCCN(c1ccccc1)c1ccc(N(C)c2ccc(N(C)c3ccccc3C(=O)O)cc2)cc1 [Compound 187]
8 | 67 |  | CN(c1ccc(CC(=O)Nc2ccccc2C(=O)O)cc1)c1ccc(C23CC4CC(CC(C4)C2)C3)cc1 [Compound 243]
9 | 100 |  | CN(c1ccc(Oc2ccc(C34CC5CC(CC(C5)C3)C4)cc2)cc1)c1ncccc1C(=O)O [Compound 196]
10 | 97 |  | NC(Cc1ccc(Nc2ccc(C34CC5CC(CC(C5)C3)C4)cc2Cl)cc1)C(=O)O (stereo not drawn) [Compound 95]
11 | 85 |  | CN(c1ccc(Nc2ncccc2C(=O)OCCO)cc1)c1ccc(C23CC4CC(CC(C4)C2)C3)cc1Cl [Compound 12]
12 | 88 |  | O=C(O)C1=C(C(=O)Nc2ccc(C34CC5CC(CC(C5)C3)C4)cc2)CCC1 [compound 289]
13 | 100 |  | O=C(O)c1cccc(Nc2cccc(Nc3ccc(C45CC6CC(CC(C6)C4)C5)cc3Cl)c2)n1 [Compound 150]
14 | 51 |  | Cn1c(-c2ccc(Nc3ccc(C45CC6CC(CC(C6)C4)C5)cc3)cc2)nc2cccc(C(=O)O)c21 [Compound 173]
15 | 100 |  | O=C(O)Cn1ccc2cc(Nc3ccc(C45CC6CC(CC(C6)C4)C5)cc3Cl)ccc21 [Compound 130]
16 | 99 |  | O=C(O)c1cccnc1Oc1ccc(Nc2ccc(C34CC5CC(CC(C5)C3)C4)cc2Cl)cc1 [Compound 136]
17 | 100 |  | Cn1c(-c2cccc(Nc3ccc(C45CC6CC(CC(C6)C4)C5)cc3)c2)nc2cccc(C(=O)O)c21 [Compound 210]
18 | 97 |  | O=C(O)c1cccnc1Nc1ccc(Nc2ccc(C34CC5CC(CC(C5)C3)C4)cc2Cl)nc1 [Compound 91]
19 | 45 |  | CC12CC3CC(C)(C1)CC(c1ccc(NC(=O)c4cccc(Nc5ccccc5C(=O)O)c4)cc1)(C3)C2 [Compound 222]
20 | 41 |  | O=C(O)c1cccnc1Nc1ncn(Cc2ccc(C34CC5CC(CC(C5)C3)C4)cc2Cl)n1 [Compound 129]
21 | 60 |  | Cc1cc(Nc2ccc(C34CC5CC(CC(C5)C3)C4)cc2)cc(Nc2ncccc2C(=O)O)c1 [Compound 32]
22 | 76 |  | Clc1cc(C23CC4CC(CC(C4)C2)C3)ccc1Nc1ccc(Cn2cncn2)cc1 [Compound 9]
23 | 100 |  | O=C(O)c1ccccc1NS(=O)(=O)c1ccc(Nc2ccc(C34CC5CC(CC(C5)C3)C4)cc2Cl)cc1 [Compound 223]
24 | 47 |  | COc1ccc(Nc2ccc(N(C)c3ccc(C(F)(F)F)cc3)cc2)c(C(N)=O)c1 [compound 429]
25 |  | 89 | O=C(NC12CC3CC(CC(C3)C1)C2)c1ccc(Nc2ccc(Nc3ccccc3C(=O)O)cc2)cc1 [Compound 176]
26 | 0 |  | CCOC(=O)c1cccc(Nc2ccc(C(=O)Nc3ccc(C45CC6CC(CC(C6)C4)C5)cc3)cc2)n1 [Compound 16]

Row | inhibition at 10 µM [%] | % of inhibition of TEAD2 palmitoylation at 10 μM [%] | Structure (SMILES)
27 | 20 |  | CC(=O)N(c1ccc(N(C(C)=O)c2ccccc2C(=O)O)cc1)c1ccc(C23CC4CC(CC(C4)C2)C3)cc1 [Compound 164]
28 | 70 |  | CCCCN(CCCC)C(=O)c1ccc(Nc2ccc(Nc3ccccc3C(=O)O)cc2)cc1 [Compound 175]
29 | 100 |  | CN(c1cccc(N(C)c2ncccc2C(=O)O)c1)c1ccc(C23CC4CC(CC(C4)C2)C3)cc1Cl [Compound 132]
30 | 43 |  | CC12CC3CC(C)(C1)CC(c1ccc(Nc4ccc(Nc5cccc(C(=O)O)n5)cc4)cc1)(C3)C2 [Compound 201]
31 | 20 |  | O=C(O)c1cncnc1Nc1ccc(Nc2ccc(C34CC5CC(CC(C5)C3)C4)cc2Cl)cc1 [Compound 85]
32 | 74 |  | O=C(O)C1CCCC1Nc1ccc(C23CC4CC(CC(C4)C2)C3)cc1 (stereo not drawn) [Compound 65]
33 | 26 |  | Cc1ccccc1Nc1ccc(Nc2ccc(C34CC5CC(CC(C5)C3)C4)cc2)cc1 [Compound 13]
34 | 90 |  | O=C(O)c1cc(C(F)(F)F)ccc1Nc1cc(Nc2ccc(C34CC5CC(CC(C5)C3)C4)cc2)cc(C(F)(F)F)c1 [Compound 29]
35 | 100 | 96 | O=C(Nc1ccc(C23CC4CC(CC(C4)C2)C3)cc1Cl)c1ccc(Nc2ncccc2C(=O)O)cc1 [Compound 183]
36 | 100 |  | CN(c1ccc(Nc2ccccc2C(=O)O)cc1)c1ccc(C23CC4CC(CC(C4)C2)C3)cc1 [Compound 172]
37 | 81 |  | CC(C)c1ccccc1-c1ccc(NC(=O)c2cccc(Nc3ccccc3C(=O)O)c2)cc1 [Compound 224]
38 | 79 |  | O=C(O)[C@H]1CCCN1C(=O)Nc1ccc(Nc2ccc(C34CC5CC(CC(C5)C3)C4)cc2Cl)cc1 [Compound 52]
39 | 52 |  | CC(C)c1ccccc1-c1ccc(Nc2ccc(Nc3ccccc3C(=O)O)cc2)c(Cl)c1 [Compound 41]
40 | 99 |  | O=C(O)c1cccnc1CN1CCC(Nc2ccc(C34CC5CC(CC(C5)C3)C4)cc2Cl)C1 (stereo not drawn) [Compound 137]
41 | 96 |  | Clc1cc(C23CC4CC(CC(C4)C2)C3)ccc1Nc1ccc(Cn2ccnc2)cc1 [Compound 105]
42 | 78 |  | O=C(O)Cn1ncc2ccc(Nc3ccc(C45CC6CC(CC(C6)C4)C5)cc3Cl)cc21 [Compound 118]
43 | 100 |  | CN(c1ccc(N(C)c2ccc(C34CC5CC(CC(C5)C3)C4)cc2)c(C(F)(F)F)c1)c1ccccc1C(=O)O [Compound 158]
44 | 102 |  | CN(c1ccc(C23CC4CC(CC(C4)C2)C3)cc1)c1cc(N(C)c2ncccc2C(=O)O)cc(C(F)(F)F)c1 [Compound 152]
45 | 83 |  | CCCCN(c1ccccc1)c1ccc(Nc2ccc(Nc3ncccc3C(=O)O)cc2)c(Cl)c1 [Compound 259]
46 | 31 |  | CC(C)(C)OC(=O)N(c1cnc(Nc2ccc(C34CC5CC(CC(C5)C3)C4)cc2Cl)cn1)c1ccccc1C(=O)O [Compound 74]
47 | 5 |  | O=C(O)c1ccccc1Nc1ccc(Nc2ccc(-c3ccccc3C(F)(F)F)cc2Cl)cc1 [Compound 53]
48 | 4 |  | CC(C)c1ccccc1-c1ccc(NC(=O)C2CN(CC(=O)O)C2)cc1 [Compound 87]
49 | 0 |  | COC(=O)c1ccccc1Nc1ccc(C(=O)Nc2ccc(C34CC5CC(CC(C5)C3)C4)cc2)cc1 [Compound 4]
50 | 76 |  | O=C(O)C1CCCCC1Nc1ccc(Nc2ccc(C34CC5CC(CC(C5)C3)C4)cc2Cl)cc1 (stereo not drawn) [Compound 46]
51 | 52 |  | CN(C(=O)c1ccc(Nc2cccc(C(=O)O)n2)cc1)c1ccc(C23CC4CC(CC(C4)C2)C3)cc1 [Compound 206]
52 | 0 |  | O=C1CC[n+]2ccccc2N1c1ccc(Nc2ccc(C34CC5CC(CC(C5)C3)C4)cc2Cl)cc1 [Compound 11]

Same assay, conditions: compound at 10 μM; Table 3

Row | inhibition at 10 µM [%] | Structure (SMILES)
53 | 8 | Cc1cc(N(C)c2ccc(C3CCCCC3)cc2Cl)ccc1Nc1cccc(C(=O)O)n1 [CP-681]
54 | 18 | CNS(=O)(=O)c1ccc(Nc2ccc(N(C)c3ccc(C4CCCCC4)cc3)cc2C)c(C#N)c1 [CP-657]
55 | 46 | COc1ccc(Nc2cnc(N(C)c3ccc(C4CCCCC4)cc3)nc2)c(C(=O)O)c1 [CP-594]
56 | 94 | COc1ccc(Nc2ccc(N(C)c3ccc(SC(F)(F)F)cc3)cc2)c(C(=O)O)c1 [CP-622]
57 | 40 | CCCCOc1ccc(Nc2ccc(N(C)c3ccc(C4CCCCC4)cc3)cc2C)c(C(=O)O)c1 [CP-628]
58 | 83 | COc1ccc(Nc2cc(Nc3ccc(C4CCCCC4)cc3Cl)cc(C(F)(F)F)c2)nc1C(=O)O [CP-675]
59 | 40 | COc1ccc(Nc2ccc(N(C)c3ccc(C(F)(F)F)cc3)nc2)c(C(=O)O)c1 [CP-592]
60 | 37 | COc1ccc(Nc2ccc(Oc3ccc(OC(F)(F)F)cc3Cl)nc2)c(C(=O)O)c1 [CP-600]
61 | 88 | COc1ccc(Nc2ccc(Oc3ccc(C4CCCCC4)cc3Cl)nc2)c(C(=O)O)c1 [CP-591]
62 | 89 | CN(c1ccc(C2CCCCC2)cc1)c1ccc(Nc2cccc(C(=O)O)n2)cn1 [CP-643]
63 | 47 | COc1ccc(Nc2ccc(Oc3ccc(C(F)F)cc3Cl)cc2)c(C(=O)O)c1 [CP-575]
64 | 15 | Cc1cc(N(C)c2ccc(C3CCCCC3)cc2)ncc1Nc1ccc(OC2CC2)cc1C(=O)O [CP-673]
65 | 89 | CN(c1ccc(Nc2cccc(C(=O)O)n2)cc1)c1ccc(C(F)(F)F)cc1 [CP-648]
66 | 73 | COc1ccc(Nc2ccc(N(C)c3ccc(C45CC6CC(CC(C6)C4)C5)cc3)cc2F)c(C(=O)O)c1 [CP-537]
67 | 1 | COCCC(=O)Nc1ccc(C(=O)OC)c(Nc2ccc(N(C)c3ccc(C45CC6CC(CC(C6)C4)C5)cc3)cc2)c1 [CP-472]
68 | 50 | COCCC(=O)Nc1ccc(C(=O)O)c(Nc2ccc(N(C)c3ccc(C45CC6CC(CC(C6)C4)C5)cc3)cc2)c1 [CP-473]
69 | 43 | COc1ccc(Nc2ccc(N(C)c3ccc(C(F)(F)F)cc3)cc2)c(C#N)c1 [CP-608]
70 | 88 | O=C(O)c1cccc(Nc2cc(Nc3ccc(C4CCCCC4)cc3)cc(C(F)(F)F)c2)c1 [CP-662]
71 | 79 | COc1ccc(Nc2ccc(N(C)c3ccc(C4CC5CCC4C5)cc3)cc2C)c(C(=O)O)c1 (stereo not drawn) [CP-577]
